Laboratory results from patent publication US6126966A (Sequus Pharmaceuticals, Inc., priority 1999, dated 2000).

What was measured:
[1] = tested on: tumor models in laboratory animals and human tumors; conditions: Sur 1983; Steerenberg 1987; cited from earlier work
[2] = Freise, et al., 1982; cited from earlier work
[3] = tested on: squamous cell cancer of the head and neck; conditions: 80 mg/m^2, 24-hour intravenous infusion; Prestayko, 1991; cited from earlier work
[4] = IV, once per week for 3 weeks, mice; cited from earlier work
C26 colon tumor = C26 colon tumor model, altered dosing schedule (FIG. 6); assay type: in vivo, mice (Balb/c, male); conditions: IV, days 12, 19, 26, free cisplatin 6 mg/kg, liposomal 6, 12/4/4 or 14/4/4 mg/kg
Method: That is, liposome-entrapped cisplatin was administered with a larger loading dose followed by smaller doses at the second and third weeks.
The C26 colon tumor model was grown in Balb/c, male mice (Simonson Laboratories, Inc., Gilroy, Calif.). Tumors were harvested from donor mice for and minced finely in RPMI media with 10% fetal calf serum (FCS). Tumors were then digested with enzyme mix (10 ml 0.25% protease type IX and 0.25% collagenase type IV in Hank's balanced salt solution (HBSS) and 0.2% ml 0.02% DNase in HBSS) for 30-60 minutes at 37° C. Single cell suspension of tumor cells was washed twice in RPMI media with FCS, concentrated by centrifugation and resuspended in RPMI media with FCS for inoculation. One million tumor cells (0.1 ml) were inoculated in the left flank of 5-6 week old mice.
2. Altered Dosing Schedule. Mice were inoculated with the C26 colon tumor cells according to the above-described procedure. Treatment of the tumor-bearing mice was initiated when the majority of animals had palpable tumors mass of about 100 mm^3.
Cisplatin entrapped in liposomes, prepared as described above, was administered intravenously according to three dosing schedules to tumor-bearing mice. […] The control group (n=5) received saline on each treatment day.

Lewis lung carcinoma = assay: Lewis lung tumor model (FIG. 7); assay type: in vivo, mice (B6C3-F1, male); conditions: days 7, 14, 21, free cisplatin 6 mg/kg, liposomal 12 mg/kg
Method: Mice bearing the Lewis lung carcinoma tumor model were treated with cisplatin, administered intravenously and intraperitoneally, or with liposome-entrapped cisplatin, administered similarly. […] A control group of tumor-bearing mice were treated with saline.
The Lewis lung tumor (LL/2, CRL-1642, ATCC, Rockville, Md.) model was grown in G6C3-F1, male mice (Simonson Laboratories, Inc., Gilroy, Calif.). Tumors were harvested from donor mice and processed as above for inoculation of an experiment. One million tumor cells (0.1 ml) were inoculated in the left flank of 5-6 week old, male, B6C3-F1 mice.
Treatment of the tumor-bearing animals was initiated seven days after inoculation, when the majority of animals had palpable tumor masses.
The control group (n=9) received saline on the treatment days (days 7, 14 and 21).

[5] = preclinical studies; Weiss, et al., 1993; cited from earlier work

For N.N.[Cl][Pt][Cl] [cisplatin, cis-diamine-dichloroplatinum (II)], which antitumor effectiveness [1] is on record?
The antitumor effectiveness was “highly effective in the treatment of tumor models in laboratory animals and in human tumors”.

What about the “excretion via the kidneys” value [2] of the same molecule?
Its value is “rapid excretion via the kidneys”.

What about the clinical response [3] of the same molecule?
Its clinical response is “favorable response”.

What about the maximally tolerated dose [4] of the same molecule?
Its maximally tolerated dose is 6 mg/kg.

What about the tumor mass (C26 colon tumor) of the same molecule?
The tumor mass was “continual increase in tumor mass”.

What about the “antitumor response, IV vs IP administration” value (Lewis lung carcinoma) of the same molecule?
Its value is “similar”.

What does the source list for N.N.O=C([O-])C1(C(=O)[O-])CCC1.[Pt+2] [carboplatin, 1,1-cyclobutane-dicarboxylate-diammineplatinum]?
antitumor activity relative to cisplatin [5]: equivalent or greater antitumor activity than cisplatin; nephrotoxicity relative to cisplatin [5]: less nephrotoxicity
